Values joined by “and” are separate entries in the source; they are usually repeats but may differ in a detail not shown here. Equal values may be shown once.
How the values were obtained:
CD1 mice = assay: Tail-flick antinociception in CD1 mice; format: in vivo, mouse; settings: sc; for Tail flick (%MPE), average / Tail flick latency in secs, Av / Tail flick latency in secs, av: average of 8 animals; for Tail flick (%MPE) / Tail flick latency: individual animals
mMOR [1] = target: T1, mMOR (Mus musculus, UniProt P42866); assay: CAMYEL BRET cAMP agonist assay at mMOR; format: cell-based; settings: mMOR, single replicates, source data Fig 6b
T1 construct: signal peptide (heterologous, not specified) (N); expressed in transfected cells; pcDNA3.1(+) construct made in house
T1 sequence (P42866 whole entry): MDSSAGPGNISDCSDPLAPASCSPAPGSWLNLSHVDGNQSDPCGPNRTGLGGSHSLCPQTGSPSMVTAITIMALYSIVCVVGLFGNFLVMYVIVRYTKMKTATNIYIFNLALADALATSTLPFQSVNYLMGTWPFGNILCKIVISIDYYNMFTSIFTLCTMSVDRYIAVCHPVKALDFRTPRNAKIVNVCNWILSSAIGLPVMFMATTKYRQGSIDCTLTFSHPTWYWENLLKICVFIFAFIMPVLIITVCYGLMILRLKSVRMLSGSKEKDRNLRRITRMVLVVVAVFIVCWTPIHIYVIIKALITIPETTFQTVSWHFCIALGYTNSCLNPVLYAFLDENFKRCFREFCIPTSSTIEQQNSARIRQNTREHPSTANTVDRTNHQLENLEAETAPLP

hMOR = target: T2, hMOR (Homo sapiens, UniProt P35372); assay: CAMYEL BRET cAMP agonist assay at hMOR; format: cell-based; settings: hMOR, single replicates, source data Fig 6c
T2 construct: expressed in transfected cells; plasmid a gift from Dr. Nevin Lambert
T2 sequence (P35372 whole entry): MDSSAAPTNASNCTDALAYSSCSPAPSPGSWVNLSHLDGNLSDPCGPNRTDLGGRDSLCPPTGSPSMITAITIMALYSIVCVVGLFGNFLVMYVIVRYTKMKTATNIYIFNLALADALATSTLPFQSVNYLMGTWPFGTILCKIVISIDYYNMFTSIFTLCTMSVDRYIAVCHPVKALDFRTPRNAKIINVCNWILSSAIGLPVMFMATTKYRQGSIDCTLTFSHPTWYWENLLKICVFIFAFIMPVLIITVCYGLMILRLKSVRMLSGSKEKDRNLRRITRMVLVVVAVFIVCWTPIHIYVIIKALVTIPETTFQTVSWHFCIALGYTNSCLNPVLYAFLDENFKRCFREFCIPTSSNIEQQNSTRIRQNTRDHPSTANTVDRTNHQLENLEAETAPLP

mMOR [2] = target: T1, mMOR; assay: BRET-based Nb33 recruitment assay at mMOR; format: cell-based; settings: single replicates, source data Fig 7a
[3] = Log[drug] (M) -13, cAMP inhibition as % of DAMGO

## CC[C@@H]1CN2CC[C@@]3(O)C(=Nc4cc(Cl)cc(OC)c43)[C@@H]2C[C@@H]1/C(=C\OC)C(=O)OC [11-Cl-7OH]
CD1 mice; 5 mg/kg, 15 min
  %MPE: 2.8 %MPE
  Tail flick (%MPE), average: 2.3 %MPE
  Tail flick latency in secs, Av: 3.3 s
  Tail flick (%MPE): -5.1 %MPE and -18.5 %MPE and 0.7 %MPE and 1.6 %MPE (2×) and 16.4 %MPE and 17.5 %MPE and 4.0 %MPE
  Tail flick latency: 2.75 secs and 2.65 secs and 2.95 secs and 3.7 secs (2×) and 4.4 secs and 3.4 secs and 2.8 secs
CD1 mice; 5 mg/kg, 30 min
  %MPE: 1.6 %MPE
  Tail flick (%MPE), average: 1.3 %MPE
  Tail flick latency in secs, Av: 3.2 s
  Tail flick (%MPE): -2.2 %MPE and -3.2 %MPE and 0.7 %MPE and -10.9 %MPE and 7.5 %MPE and 4.7 %MPE and 10.0 %MPE and 4.0 %MPE
  Tail flick latency: 2.95 secs (2×) and 3.6 secs and 2.9 secs and 3.8 secs and 3.9 secs and 2.8 secs (2×)
CD1 mice; 5 mg/kg, 60 min
  %MPE: 3.3 %MPE
  Tail flick latency in secs, Av: 3.3 s
  Tail flick (%MPE): -2.9 %MPE and -16.1 %MPE and 7.0 %MPE and -1.6 %MPE and 1.5 %MPE and -10.9 %MPE and 21.3 %MPE and 20.0 %MPE
  Tail flick latency: 2.9 secs (2×) and 2.8 secs and 3.4 secs (2×) and 3.5 secs and 3.7 secs and 4 secs
CD1 mice; 25 mg/kg, 15 min
  %MPE: 2.83 %MPE
  Tail flick (%MPE), average: 2.6 %MPE
  Tail flick latency in secs, av: 2.9 s
  Tail flick (%MPE): 12.5 %MPE and -0.8 %MPE and 0.7 %MPE and -0.7 %MPE (2×) and 10.4 %MPE and -3.5 %MPE and 2.7 %MPE
  Tail flick latency: 3.0 secs (2×) and 3.5 secs and 2.8 secs and 2.6 secs (2×) and 3.1 secs and 2.9 secs
CD1 mice; 25 mg/kg, 30 min
  %MPE: 5.91 %MPE
  Tail flick (%MPE), average: 5.5 %MPE
  Tail flick latency in secs, av: 3.1 s
  Tail flick (%MPE): 12.5 %MPE and -11.5 %MPE and 9.0 %MPE and 3.6 %MPE and 10.1 %MPE and 10.4 %MPE and 3.5 %MPE and 6.8 %MPE
  Tail flick latency: 3.0 secs and 2.8 secs and 3.4 secs (2×) and 3.3 secs and 3.1 secs (2×) and 3.2 secs
CD1 mice; 25 mg/kg, 60 min
  %MPE: 6.34 %MPE
  Tail flick (%MPE), average: 6.0 %MPE
  Tail flick latency in secs, av: 3.2 s
  Tail flick (%MPE): 7.5 %MPE and -7.7 %MPE and 10.3 %MPE and 2.1 %MPE and 12.2 %MPE and 22.1 %MPE and 0.7 %MPE (2×)
  Tail flick latency: 2.6 secs and 3.0 secs and 3.5 secs (2×) and 3.2 secs and 4.0 secs and 2.9 secs and 2.8 secs
CD1 mice; 25 mg/kg, 150 min
  %MPE: 2.66 %MPE
  Tail flick (%MPE), average: -0.273 %MPE
  Tail flick latency in secs, av: 2.9 s
  Tail flick (%MPE): -10.0 %MPE and 3.1 %MPE and 2.8 %MPE and -5.0 %MPE and 4.7 %MPE and 2.9 %MPE and -0.7 %MPE and 0.0 %MPE
  Tail flick latency: 2.3 secs and 3.7 secs and 3.0 secs and 2.6 secs and 2.9 secs (2×) and 3.3 secs and 2.5 secs

## C[C@@H](NC(=O)[C@@H](N)Cc1ccc(O)cc1)C(=O)NCC(=O)N(C)[C@@H](Cc1ccccc1)C(=O)NCCO [DAMGO, [D-Ala^2, N-Me-Phe^4, Gly^5-ol]-enkephalin, reference compound]
mMOR [1]; Log[drug] (M) -5
  cAMP %: 102.015% and 97.5784% and 104.579% and 96.6295% and 98.3687% and 104.58% and 107.049% and 113.123% and 108.981%
mMOR [1]; Log[drug] (M) -6
  cAMP %: 105.759% and 89.6935% and 102.343% and 97.3213% and 106.448% and 102.195% and 98.7916% and 100.678% and 92.5396%
mMOR [1]; Log[drug] (M) -7
  cAMP %: 94.7459% and 89.7557% and 84.4404% and 103.092% and 95.8909% and 105.68% and 91.1195% and 91.3937% and 91.5037%
mMOR [1]; Log[drug] (M) -8
  cAMP %: 54.4279% and 44.3207% and 58.3553% and 86.2498% and 84.9633% and 88.7212% and 82.7217% and 81.9867% and 95.6687%
mMOR [1]; Log[drug] (M) -9
  cAMP %: 14.6461% and 18.37% and 18.8483% and 47.9% and 59.4105% and 56.9807% and 36.8388% and 43.8092% and 46.1925%
mMOR [1]; Log[drug] (M) -10
  cAMP %: 1.728% and 0.08907% and -1.817% and 16.1543% and 6.811% and 19.2753% and 3.3167% and 1.639% and 10.5208%
mMOR [1]; Log[drug] (M) -11
  cAMP %: 6.094% and 2.441% and 8.528% and 5.436% and 3.7044% and 1.349% and 1.812% and -1.084% and -0.7282%
mMOR [1]; [3]
  cAMP %: -0.3434% and 15.5805% and 1.417% and -1.196% and 0.717% and 0.4788% and 1.6944% and 5.324% and 4.584%
hMOR; Log[drug] (M) -5
  cAMP %: 103.124% and 109.477% and 102.684% and 110.427% and 108.861% and 108.591% and 112.306% and 111.09%
hMOR; Log[drug] (M) -6
  cAMP %: 98.2575% and 92.1607% and 109.669% and 106.978% and 96.9047% and 104.556% and 112.319% and 93.9893% and 98.3933%
hMOR; Log[drug] (M) -7
  cAMP %: 84.826% and 103.003% and 98.5438% and 92.203% and 94.9009% and 88.7302% and 91.8158% and 88.9226% and 95.649%
hMOR; Log[drug] (M) -8
  cAMP %: 90.1183% and 95.617% and 94.9621% and 80.7074% and 80.5991% and 79.7704% and 101.871%
hMOR; Log[drug] (M) -9
  cAMP %: 83.2929% and 84.9251% and 85.9398% and 87.1639% and 70.6227% and 86.8862% and 70.8595%
hMOR; Log[drug] (M) -10
  cAMP %: 23.9872% and 31.9271% and 31.1042% and 26.2749% and 20.3118% and 16.9632% and 5.794% and 13.2278% and 15.6275%
hMOR; Log[drug] (M) -11
  cAMP %: 7.017% and -4.712% and 3.0598% and 13.9517% and -4.528% and 3.447% and 8.388% and -3.773% and -4.615%
hMOR; [3]
  cAMP %: 1.163% and -6.717% and 5.554% and 6.145% and -10.7075% and 4.5627% and 2.101% and 2.953% and 0.8452%
mMOR [2]; Log[drug] (M) -4
  Nb33 BRET assay at mMOR, response: 116.548 and 99.0991 and 123.097 and 102.778 and 111.876 and 86.5818 and 91.4453 and 105.421 and 94.7199 and 96.8839 and 110.228 and 105.758 and 96.6672 and 105.453 and 97.0797 and 106.37 and 115.431 and 97.3489 and 102.87 and 112.822 and 97.3627
mMOR [2]; Log[drug] (M) -5
  Nb33 BRET assay at mMOR, response: 78.3004 and 105.49 and 93.3001 and 92.3549 and 96.5229 and 94.3135 and 107.346 and 108.338 and 93.8039 and 95.4962 and 95.2898 and 96.1807 and 98.423 and 95.5858 and 88.3338 and 114.596 and 90.0997 and 91.8485 and 91.211 and 101.524 and 97.9528
mMOR [2]; Log[drug] (M) -8
  Nb33 BRET assay at mMOR, response: 25.6157 and -0.9817 and 2.276 and 16.2956 and 7.2069 and 3.257 and 8.405 and 5.376 and 16.5535 and 18.8366 and 6.195 and 12.7572 and 5.664 and 5.763 and 13.2066 and 17.6481
mMOR [2]; Log[drug] (M) -9
  Nb33 BRET assay at mMOR, response: 2.545 and 18.2179 and 1.398 and 13.71 and 1.7362 and 12.589 and -5.813 and 7.089 and -10.8919 and 4.229 and 0.1289 and 0.7333 and 3.575 and -0.9155 and 34.3413 and 6.961 and -1.352 and 3.399 and 3.853 and 3.842 and 2.552
mMOR [2]; Log[drug] (M) -10
  Nb33 BRET assay at mMOR, response: 3.45 and -1.0779 and -15.1434 and 16.2214 and 5.631 and -0.462 and -5.169 and -3.138 and 4.714 and -1.576 and 1.587 and 11.4832 and -0.3739 and -1.213 and -14.9335 and -0.4874 and 0.03891 and 0.4485 and -4.142 and 2.431 and 1.7112

## CN1CC[C@]23c4c5ccc(O)c4O[C@H]2[C@@H](O)C=C[C@H]3[C@H]1C5 [Morphine, morphine, reference compound]
CD1 mice; Fig 9b, Morphine 10 mg/kg
  Tail flick (%MPE): 32.79 %MPE and 42.86 %MPE and 100.00 %MPE (6×) and 61.73 %MPE and 52.00 %MPE
  Tail flick latency: 5.9 and 6 and 10 (6×) and 6.9 and 6.4
